Where “and” joins values, the source holds several entries; their conditions need not be identical. Identical values can stand only once. Entries after “also recorded” stand apart in the source; their conditions may differ. Counter-ions that a name gives are not always drawn.
What was measured:
hSERT = molecular target: T1, hSERT (Homo sapiens, UniProt P31645); test: hSERT inhibition assay (APP+ fluorescence uptake); format: cell-based
T1 construct: expressed in transfected cells
Method: Stably transfected hSERT-HEK cellular cultures were maintained in Dulbecco’s Minimal Essential Medium (DMEM) with GlutaMAX (Gibco-Thermo Fisher Scientific, Waltham, MA) with the following additions: 10% (v/v) Fetal Bovine Serum (FBS, Atlanta Biologicals, Flowery Branch, GA), 100 U/mL Penicillin 10 μg/mL Streptomycin (Gibco-Thermo Fisher Scientific, Waltham, MA), and 500 μg/mL Geneticin (G418) (Sigma Aldrich, St. Louis, MO). Singly transfected cells were seeded at a density of 0.09 × 10^6 cells/well in poly-D-Lysine (Sigma Aldrich, St. Louis, MO) coated white solid-bottom 96-well plates (Greiner Bio-One, Kremsmünster, Austria). Cells were grown for 44 h in aqueous media at 37 °C under 5% CO2 atmosphere. […] A final solution of 120 μL of PBS was finally added to all corresponding wells for cell maintenance before measuring fluorescence uptake (BioTek H1MF plate reader (BioTek Instruments, Winooski, VT), APP+ excitation and emission wavelengths 436 and 500 nm). Recorded inhibitor values were first subtracted from vehicular values to quantify the respective fluorescence uptake. Data were analyzed using the dose-response-inhibitor nonlinear curve fitting model (log[inhibitor] vs response (four parameters) in Graphpad Prism 10 (Graphpad Software, La Jolla, CA).

monkeys = details: daily dosing prior to SA sessions (14 days); cited from earlier work
hKOR [1] = molecular target: T2, hKOR (Homo sapiens, UniProt P41145); test: G protein activation BRET assay; format: cell-based; details: for EC50: HEK-293T, (95% CI); for % effect at 100 µM: n = 4
T2 construct: expressed in transfected cells; host or cells: HEK-293T, transient (PEI)
T2 sequence (P41145 whole entry): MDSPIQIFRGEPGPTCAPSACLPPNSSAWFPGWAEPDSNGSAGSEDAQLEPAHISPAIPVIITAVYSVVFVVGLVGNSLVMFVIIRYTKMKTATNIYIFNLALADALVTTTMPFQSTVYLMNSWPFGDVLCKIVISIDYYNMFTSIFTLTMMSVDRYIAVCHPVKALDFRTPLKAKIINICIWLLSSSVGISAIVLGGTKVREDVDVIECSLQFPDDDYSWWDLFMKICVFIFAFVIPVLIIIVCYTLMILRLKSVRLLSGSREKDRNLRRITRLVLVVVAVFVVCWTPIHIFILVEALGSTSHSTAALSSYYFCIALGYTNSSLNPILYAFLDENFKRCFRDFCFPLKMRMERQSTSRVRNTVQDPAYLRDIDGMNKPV

mice = test: Open field test (locomotion, sedation); format: in vivo, mouse; design: unit not given here; details: groups not marked Female
Method: Mice were transferred to the testing room 30 min before the experiment to allow for acclimation. Body weight of each mouse was recorded. For experiments with antagonist, pre-treatment, the dosing and after application wait times were the same as for the tail-flick test. Mice were administered an ED50, ED80 or >ED95 doses of test compound (volume of injection 290–350 µL based on body weight). After injection, mice were returned to the home cage and allowed to rest for 30 min. Each mouse was then gently placed in the center of a clear Plexiglas arena (27.31 × 27.31 × 20.32 cm, Med Associates ENV-510) lit with dim light ( ~ 5 lux) and allowed to ambulate freely for 60 minutes. The locomotion of the mouse was tracked by infrared beams embedded along the X, Y, Z axes of the area and automatically recorded. Data was collected on Activity Monitor by Med Associates.
Statistical analysis was performed using the unpaired t-test, two-tailed with Welch’s correction to analyze total locomotion and a two-way ANOVA with Šidák’s multiple comparison test for post hoc comparison to analyze locomotion across time bins.

male rats = details: cited from earlier work
GDNF = GDNF expression studies (ELISA, brain regions); format: in vivo, rat; details: aticaprant 1 mg/kg s.c. before oxa-noribogaine 40 mg/kg i.p.
Method: One day or five days after drug administration, rats from these groups as well as non-treated controls were decapitated, brains removed and placed in a stainless-steel rat brain matrix. Coronal slices were taken and the ventral tegmental area (VTA), nucleus accumbens (NAc) and medial prefrontal cortex (mPFC) were dissected and immediately frozen on dry ice. Total protein was isolated from pulverized tissue (8–15 mg tissue per region was harvested from one subject) from these regions. GDNF contents were assayed using the BiosSensis GDNF, Rat, Rapid™ ELISA assay (Biosensis Pty Ltd, SA, Australia). Protease (Thermo Scientific, Rockford, IL), and phosphatase inhibitors (Cocktails 1 and 2, Sigma-Aldrich, St. Louis, MO) were added to the extraction buffers. Regardless of sample weight 230uL of RIPA buffer (Sigma; R0278) was added into each sample along with protease inhibitors. […] Protein concentrations were measured using the bicinchoninic acid protein assay kit (Pierce, Rockford, IL, USA) on a spectrophotometer (iD5, Molecular Devices, Sunnyvale, CA). […] In a separate cohort, we assessed the ability of the kappa antagonist aticaprant to attenuate the oxa-noribogaine induced increase in GDNF in the VTA and mPFC five days after administration. […] Data were analyzed by protein and region using one way ANOVA with Tukey’s multiple comparison test for post hoc comparison.

male Fisher F-344 rats = details: preclinical assays in rats; cited from earlier work
hKOR [2] = molecular target: T2, hKOR; test: KOR [35S]GTPγS agonist assay (commercial); format: biochemical; details: Log [Drug]

T1 sequence (P31645 whole entry): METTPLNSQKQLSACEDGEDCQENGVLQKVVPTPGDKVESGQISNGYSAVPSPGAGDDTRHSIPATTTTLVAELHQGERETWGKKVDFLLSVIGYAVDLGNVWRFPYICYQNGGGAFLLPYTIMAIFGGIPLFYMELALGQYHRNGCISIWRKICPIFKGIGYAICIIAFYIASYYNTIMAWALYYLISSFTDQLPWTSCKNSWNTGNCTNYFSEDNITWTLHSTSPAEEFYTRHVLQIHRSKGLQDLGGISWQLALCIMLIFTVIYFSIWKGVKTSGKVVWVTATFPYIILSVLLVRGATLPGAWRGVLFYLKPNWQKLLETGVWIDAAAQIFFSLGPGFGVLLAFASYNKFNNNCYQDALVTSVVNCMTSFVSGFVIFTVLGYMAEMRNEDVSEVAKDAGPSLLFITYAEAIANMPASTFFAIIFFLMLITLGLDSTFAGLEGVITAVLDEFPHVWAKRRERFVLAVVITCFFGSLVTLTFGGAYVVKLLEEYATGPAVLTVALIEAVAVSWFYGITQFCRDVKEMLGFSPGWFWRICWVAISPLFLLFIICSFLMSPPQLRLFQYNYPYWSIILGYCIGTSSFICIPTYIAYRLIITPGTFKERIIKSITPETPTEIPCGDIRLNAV

CN(C)CCCN1c2ccccc2CCc2ccccc21 [Imipramine, imipramine hydrochloride]
Emax (hSERT): 100%

C[C@H]1CNCCc2ccc(Cl)cc21 [Lorcaserin, lorcaserin]
suppression of cocaine SA (monkeys): the suppression effect completely dissipated as soon as the treatment ended

Oxa-ibogamine
EC50 (hKOR [1]): > 10 µM
% effect at 100 µM (hKOR [1]): 56%

Epi-oxa-ibogamine
EC50 (hKOR [1]): > 10 µM
% effect at 100 µM (hKOR [1]): 46%

Cc1cc(C)cc([C@@H]2CCCN2Cc2ccc(Oc3ccc(C(N)=O)cc3F)cc2)c1 [Aticaprant (ATI)]
Open field total locomotion, individual animals (Fig. 3h source data) (mice): 98.5549 and 70.7237 and 76.3275 and 70.7309 and 115.865 and 89.5078 and 98.6683 and 78.3135

COc1ccc2c3c([nH]c2c1)CCN(C)CC3 [TBG]
effect on heroin SA (male rats): no lasting effect on heroin SA

Cc1cc(C)cc([C@@H]2CCCN2Cc2ccc(Oc3ccc(C(N)=O)cc3F)cc2)c1 [aticaprant]
effect of pre-treatment on oxa-noribogaine-induced GDNF increase (GDNF): the induction of GDNF was blocked in both mPFC and VTA; also recorded: prevents the increase of GDNF expression in mPFC and VTA

COCC[C@H]1CC2CN3CCc4c([nH]c5ccccc45)[C@](C(=O)OC)(C2)[C@H]13 [18MC, 18-methoxycoronaridine]
effect on morphine intake (male Fisher F-344 rats): efficacy and duration of effect on morphine intake comparable to ibogaine and noribogaine

CC[C@H]1C[C@H]2C[C@H]3c4[nH]c5ccc(O)cc5c4CCN(C2)[C@@H]13 [NORIBO]
response, Fig. S5a concentration-response point (hKOR [2]; M = -4): 66
response, Fig. S5a concentration-response point (hKOR [2]; M = -4.5): 55
response, Fig. S5a concentration-response point (hKOR [2]; M = -5): 39
response, Fig. S5a concentration-response point (hKOR [2]; M = -5.5): 20
response, Fig. S5a concentration-response point (hKOR [2]; M = -6): 7
response, Fig. S5a concentration-response point (hKOR [2]; M = -6.5): 2
